Test results taken from patent US11306344B2, “Spectral intensity ratio (SIR) analysis for rapid live microbial enumeration” (TACOUNT EXACT LTD., priority 2015, dated 2022).
Like-named read-outs stand apart in the source and are kept apart here.

Key:
[1] = test system: E. coli - #25922; experiment: Flow-Cytometry NVP of dye-stained bacteria; assay type: cell-based; details: FM 1-43 staining
[2] = test system: Entrobacter aerogenes; experiment: Flow-Cytometry NVP of dye-stained bacteria; assay type: cell-based, E. aerogenes
[3] = test system: E. coli - O157; assay type: cell-based, E. coli O157:H7 (EHEC)
[4] = test system: E. coli #8739; experiment: Flow-Cytometry SIR and NVP of dye-stained bacteria; assay type: cell-based; details: for NVP calculation / SIR calculation: 670 (14)/780 (60) nm channels
[5] = test system: Bacillus subtillis; experiment: Flow-Cytometry NVP of dye-stained bacteria; assay type: cell-based, B. subtilis
[6] = test system: E. coli #8739; experiment: Fluorimeter (spectrofluorimetry) spectra, SIR and NVP of dye-stained bacteria; assay type: cell-based
[7] = test system: Enterococcus faecalis; experiment: Flow-Cytometry SIR and NVP of dye-stained bacteria; assay type: cell-based, E. faecalis
[8] = test system: Pseudomonas aeruginosa; experiment: Flow-Cytometry NVP of dye-stained bacteria; assay type: cell-based, Ps. Aeruginosa
[9] = test system: Enterococcus faecium; experiment: Flow-Cytometry NVP of dye-stained bacteria; assay type: cell-based, E. faecium
[10] = test system: Entrobacter cloacae; experiment: Flow-Cytometry NVP of dye-stained bacteria; assay type: cell-based, E. cloacae
[11] = test system: S. aureus; experiment: Flow-Cytometry NVP of dye-stained bacteria; assay type: cell-based
[12] = test system: E. coli K12 (MG1655); experiment: Flow-Cytometry SIR analysis of E. coli K12 grown with ampicillin (FM 1-43 staining); assay type: cell-based; details: 1 hour
Method: The disclosed method was further validated in studies using E. coli K12 (MG1655, obtained from ATCC). After 5 hours of growth in medium, E. coli were divided into three groups: (A) grown for one hour with no antibiotics, (B) grown for one hour with 700 micrograms of ampicillin, and (C) grown for one hour with 1500 micrograms of ampicillin.
The bacteria were suspended in PBS and stained with FM® 1-43 (43N-(3-Triethylammoniumpropyl)-4-(4-(Dibutylamino) Styryl) Pyridinium Dibromide) ([…] as per the methodology described earlier.
Flow-Cytometry measurements of the stained bacterial samples were performed. In order to adjust the flow-cytometry to the spectral characterization as shown in the fluorescence spectra of the FM® 1-43 (43N-(3-Triethylammoniumpropyl)-4-(4-(Dibutylamino) Styryl) Pyridinium Dibromide) stained bacteria, the […] nm excitation channel of the flow-cytometry and two fluorescence channel using 530 (30) nm and 610 (20) nm as the λ1 and λ2 for the SIR calculation were used. The results are tabulated below and depicted in FIG. 14.

CCCCN(CCCC)c1ccc(/C=C/c2cc[n+](CCC[N+](CC)(CC)CC)cc2)cc1.[Br-].[Br-] [FM® 1-43, N-(3-Triethylammoniumpropyl)-4-(4-(Dibutylamino) Styryl) Pyridinium Dibromide]
NVP values ([1]; Chlorine): 9 | NVP values ([1]; Heated): 7 | NVP values ([1]; UV-MP): 5 | NVP values ([2]; FM 1-43 staining, Chlorine): 12 | NVP values ([2]; FM 1-43 staining, Heated): 8 | NVP values ([2]; FM 1-43 staining, UV-MP): 4.5 | NVP values [3]: ~10 | NVP values ([3]; FM 1-43 staining, Heated): ~10 | Non-Viability Parameter (NVP) ([4]; 85°, 15 min): 9 | SIR (610/530) Ratio ([4]; 85°, 15 min): 8.8 | Non-Viability Parameter (NVP) ([4]; Chlorine 0.05%): 10 | SIR (610/530) Ratio ([4]; Chlorine 0.05%): 9.6 | Non-Viability Parameter (NVP) ([4]; Ethanol 70%): 7 | SIR (610/530) Ratio ([4]; Ethanol 70%): 6.5 | NVP values ([4]; FM 1-43 staining, Chlorine): 10 | NVP values ([4]; FM 1-43 staining, Heated): 9 | NVP values ([4]; FM 1-43 staining, UV-MP): 5 | SIR (610/530) Ratio ([4]; Live bacteria): 0.73 | Non-Viability Parameter (NVP) ([4]; UV-LP 30 mJ): 1 | SIR (610/530) Ratio ([4]; UV-LP 30 mJ): 0.7 | Non-Viability Parameter (NVP) ([4]; UV-MP 30 mJ): 5 | SIR (610/530) Ratio ([4]; UV-MP 30 mJ): 3.5 | NVP values ([5]; FM 1-43 staining, Chlorine): 1.5 | NVP values ([5]; FM 1-43 staining, Heated): 1.2 | NVP values ([5]; FM 1-43 staining, UV-MP): 1.2 | Non-Viability Parameter (NVP) ([6]; 85°, 15 min): ~5 | SIR (I610/I530) ([6]; 85°, 15 min): ~7 | Non-Viability Parameter (NVP) ([6]; Chlorine 0.05%): ~5 | SIR (I610/I530) ([6]; Chlorine 0.05%): ~8 | Non-Viability Parameter (NVP) ([6]; Ethanol 70%): ~3 | SIR (I610/I530) ([6]; Ethanol 70%): 4.4 | SIR (I610/I530) ([6]; Live bacteria): ~1.5 | Non-Viability Parameter (NVP) ([6]; UV-LP 30 mJ): 1 | SIR (I610/I530) ([6]; UV-LP 30 mJ): 1 | Non-Viability Parameter (NVP) ([6]; UV-MP 30 mJ): ~2 | SIR (I610/I530) ([6]; UV-MP 30 mJ): 3.7 | NVP ([7]; 530(30)/610(20), Chlorine): 2 | NVP ([7]; 530(30)/610(20), Heated): 1.6 | NVP ([7]; 530(30)/610(20), UV-MP): 1.1 | SIR: 530(30)/610(20) ([7]; Chlorine): 13 | NVP values ([7]; FM 1-43 staining, Chlorine): 2 | NVP values ([7]; FM 1-43 staining, Heated): 1.6 | NVP values ([7]; FM 1-43 staining, UV-MP): 1.1 | SIR: 530(30)/610(20) ([7]; Heated): 10.3 | SIR: 530(30)/610(20) ([7]; Live): 6.5 | SIR: 530(30)/610(20) ([7]; UV-MP): 7.1 | NVP values ([8]; FM 1-43 staining, Chlorine): 5 | NVP values ([8]; FM 1-43 staining, Heated): 4.6 | NVP values ([8]; FM 1-43 staining, UV-MP): 3.2 | NVP values ([9]; FM 1-43 staining, Chlorine): 1.7 | NVP values ([9]; FM 1-43 staining, Heated): 1.6 | NVP values ([10]; FM 1-43 staining, Chlorine): 10 | NVP values ([10]; FM 1-43 staining, Heated): 8 | NVP values ([10]; FM 1-43 staining, UV-MP): 5 | NVP values ([11]; FM 1-43 staining, Chlorine): 1.7 | NVP values ([11]; FM 1-43 staining, Heated): 1.6 | NVP values ([11]; FM 1-43 staining, UV-MP): 1.1

CCN(CC)c1ccc(C=CC=CC=Cc2cc[n+](CCC[N+](CC)(CC)CC)cc2)cc1.[Br-].[Br-] [FM® 4-64, N-(3-Triethylammoniumpropyl)-4-(6-(4-(Diethylamino) Phenyl) Hexatrienyl) Pyridinium Dibromide]
NVP values ([2]; FM 4-64 staining, Chlorine): 4.5 | NVP values ([2]; FM 4-64 staining, Heated): 3.3 | NVP values ([2]; FM 4-64 staining, UV-MP): 1.7 | NVP calculation ([4]; Chlorinated): 3.4 | SIR calculation ([4]; Chlorinated): 12 | NVP calculation ([4]; Heated (85°, 15 min)): 4 | SIR calculation ([4]; Heated (85°, 15 min)): 14 | SIR calculation ([4]; Live): 3.5 | NVP calculation ([4]; UV-MP): 3.7 | SIR calculation ([4]; UV-MP): 13 | NVP values ([4]; FM 4-64 staining, Chlorine): 3.4 | NVP values ([4]; FM 4-64 staining, Heated): 4 | NVP values ([4]; FM 4-64 staining, UV-MP): 3.7 | NVP values ([5]; FM 4-64 staining, Chlorine): 1.5 | NVP values ([5]; FM 4-64 staining, Heated): 1.8 | NVP ([7]; 670(14)/780(60), Chlorine): 2.9 | NVP ([7]; 670(14)/780(60), Heated): 3 | NVP ([7]; 670(14)/780(60), UV-MP): 1.2 | SIR: 670(14)/780(60) ([7]; Chlorine): 19.7 | NVP values ([7]; FM 4-64 staining, Chlorine): 2.9 | NVP values ([7]; FM 4-64 staining, Heated): 3 | NVP values ([7]; FM 4-64 staining, UV-MP): 1.2 | SIR: 670(14)/780(60) ([7]; Heated): 20 | SIR: 670(14)/780(60) ([7]; Live): 6.7 | SIR: 670(14)/780(60) ([7]; UV-MP): 8.1 | NVP values ([8]; FM 4-64 staining, Chlorine): 2 | NVP values ([8]; FM 4-64 staining, Heated): 1.8 | NVP values ([9]; FM 4-64 staining, Chlorine): 3 | NVP values ([9]; FM 4-64 staining, Heated): 3 | NVP values ([10]; FM 4-64 staining, Chlorine): 4.5 | NVP values ([10]; FM 4-64 staining, Heated): 3.7 | NVP values ([10]; FM 4-64 staining, UV-MP): 2.5 | NVP values ([11]; FM 4-64 staining, Chlorine): 2.4 | NVP values ([11]; FM 4-64 staining, Heated): 3 | NVP values ([11]; FM 4-64 staining, UV-MP): 1.1

CC1(C)S[C@@H]2[C@H](NC(=O)[C@H](N)c3ccccc3)C(=O)N2[C@H]1C(=O)O [ampicillin]
% from population ([12]; 700 μg ampicillin, DEAD gate): 15% | SIR ([12]; 700 μg ampicillin, DEAD gate): 4.4 | % from population ([12]; 700 μg ampicillin, LIVE gate): 83.7% | SIR ([12]; 700 μg ampicillin, LIVE gate): 1 | % from population ([12]; 1500 μg ampicillin, DEAD gate): 20% | SIR ([12]; 1500 μg ampicillin, DEAD gate): 5.3 | % from population ([12]; 1500 μg ampicillin, LIVE gate): 78% | SIR ([12]; 1500 μg ampicillin, LIVE gate): 1
